Experimental data as given in patent US20230232837A1, “NOVEL FORMULATIONS FOR INCREASING THE GERMINATION RATE OF FUNGAL SPORES” (priority 2020, published 2023).

Legend:
[1] = system: Trichoderma atroviride strain T1; test: Germination rate after air-drying with protectants, strain T1; type: cell-based; details: after air-drying at room temperature overnight; material:spore 1:1, lecithin 1:10
Method: (§1) The spores of Trichoderma strains T1 and B35 were prepared by Solid State Fermentation (SSF) and harvested, then centrifuged to form a spore paste. T1 is used here as an abbreviation for Trichoderma atroviride strain T1 with a culture collection No. I123-7 (French collection), while B35 is used here as an abbreviation for Trichoderma asperellum strain B35, deposited in the German Culture collection under the No. DSM33245.
(§2) For the air-drying experiments (explained further below), in order to get a protectant-to-spore mass ratio of 1:1 (except for lecithin), 12 g of the spore paste was mixed with 3 g of the protectant in order to get a total of 15 g. The spore concentration in the paste is about 25%, which makes then 3 g of spore in contact with 3 g of protectant. The mixture of protectants and paste were mixed for 5 min and 3400 rpm using an Ultra-Turrax equipment (IKA T25). In case of the test for lecithin, 1.5 g of a 20% lecithin solution was added to 13.5 g of spore paste, then mixed according to the afore-mentioned procedure (5 min, 3400 rpm). After mixing, the mixture was poured into a tray and dried at room temperature overnight.
(§3) Germination rates were measured according to the following protocol: The sample with the spores is dispersed in sterile tap water to get a homogenous spore solution. Depending on the initial spore concentration, the sample may need to be diluted up to 1E+07 spores/mL. This dilution then is spread on agar plates (often, 100 μl of dilution spread on a Potato Dextrose Agar plate) with a sterile Drigalski spatula. Depending on the strain type, the plates are incubated at a certain temperature (for example 20° C. for Trichoderma used here) for some time (here 19-24 hours is used) to allow time for germination and forming hyphae. Subsequently, the spores on the plates are analyzed under the microscope in 8 to 10 randomly chosen areas. At least 200 germinated and non-germinated spores are counted. The viability (%) is calculated by 100 times the number of germinated spores to the total spores counted.
(§4) A test was conducted to compare lecithin against other known microbial stabilizers and protectant materials. These materials include different sugars, proteins, skim milk powder, and others. Initially, an air-drying technique in room temperature was used.
(§5) After the spores were air dried with different protectants at room temperature overnight, the germination rate and total dry matter content (DMC, which is a way of expressing total moisture content) of the samples were analyzed.

[2] = system: Trichoderma asperellum strain B35; test: Germination rate after air-drying with protectants, strain B35; type: cell-based; details: after air-drying at room temperature overnight; material:spore 1:1, lecithin 1:10
Method: as §1, §2, §3, §4, §5

[3] = Dry matter content / residual moisture by heating balance; type: physicochemical; details: dry matter content after air-drying; for DMC (%) B35: strain B35; for DMC (%) T1: strain T1
Method: For all experiments conducted, dry matter content (as related to total moisture content) was measured by a heating balance apparatus (Sartorius MA 160).
as §5

Molecule | Germination rate (%) T1 [1] | Germination rate (%) B35 [2] | DMC (%) B35 [3] [%] | DMC (%) T1 [3] [%]
Maltodextrin | 54.55% | 20.38% | 92.49 | 94.46
OC[C@H]1O[C@@](CO)(O[C@H]2O[C@H](CO)[C@@H](O)[C@H](O)[C@H]2O)[C@@H](O)[C@@H]1O [Sucrose] | – | 36.45% | 91.59 | –
OC[C@@H](O)[C@H](O)[C@H](O)[C@@H](O)CO [Ducitol/Galactitol] | not soluble | not soluble | – | –
OC[C@@H](O)[C@@H](O)[C@H](O)[C@@H](O)CO [Sorbitol/Glucitol] | – | 13.00% | 93.99 | –
OC[C@H]1O[C@H](O[C@H]2O[C@H](CO)[C@@H](O)[C@H](O)[C@H]2O)[C@H](O)[C@@H](O)[C@@H]1O [Trehalose] | 68.75% | 43.18% | 91.84 | 90.35
O[C@H]1[C@H](O)[C@@H](O)[C@H](O)[C@@H](O)[C@H]1O [Myo-Inositol] | 65.03% | 59.05% | 95.59 | 96.6
OC[C@@H](O)[C@@H](O)[C@H](O)[C@H](O)CO [Mannitol] | 69.95% | 51.40% | 94.88 | 97.01
Chitosan | not soluble | not soluble | – | –
